Assay results as given in US11583570B2, “Use of autoinducer-related pathway in inducing apoptosis and anti-infective therapy” (TSINGHUA UNIVERSITY, priority 2017, dated 2023).

Assays:
[1] = system: EGFR; assay: EGFR phosphorylation; type: cell-based; details: in the absence of the ligand
[2] = system: thymoma line EL4; assay: Annexin V/PI apoptosis detection, EL4; type: cell-based
Protocol: (§1) Cell apoptosis was detected with Annexin V/PI apoptosis detection Kit. Briefly, cells were stimulated with HSLs or left untreated. 6 hrs later, cells were collected and stained with Annexin VFITC and PI for 15 min at RT, then the apoptotic effect was measured by flow cytometry. OT-I or OT-II splenocytes were pulsed with specific peptides or PMA and ionomycin mixture with or without HSLs or TNF α plus cycloheximide. 24 hrs later, cells and supernatants were collected separately. For OT-I activation, cells were stained with CD69 and CD8. For OT-II activation, cells were stained with CD69 and CD4. Cell activation was measured by flow cytometry. All supernatants were detected for IL-2 secretion by ELISA.

[3] = system: transformed DC line DC2.4; assay: Annexin V/PI apoptosis detection, DC2.4; type: cell-based
Protocol: as §1

[4] = system: TNFR1; assay: Lipid raft isolation, TNFR1 in detergent resistant domains; type: cell-based; details: human and mouse T cells
[5] = system: TNFR1; assay: DTSSP cross-linking assay, TNFR1; type: cell-based; details: crosslinker DTSSP, non-reducing condition
Protocol: (§2) For FADD immunoprecipitation, 4 μg anti-mouse FADD pAb (Santa Cruz, H-181) were incubated with 100 μl protein A/G agarose for 2 hrs at RT. 3 million/ml purified CD4 T cells were stimulated with HSLs or left untreated. The cells were then collected and lysed with IP lysis buffer (50 mM HEPES pH 7.4, 150 mM NaCl, 1% NP-40, 1 mM EDTA, 1 mM PMSF, 1 mM NaF, 1 mM NaVO3 and protease inhibitor cocktails). The cell lysates were added into antibody-bead mixtures for 3 hrs at 4° C. Beads were then collected by low speed centrifugation (1000 g, 5 min) and washed 4 times with IP lysis buffer (300 mM NaCl added). After the last wash, pellets were suspended with 70 ul 2×SDS loading buffer and boiled for 5 min. For caspase 8 immunoprecipitation, 4 μg anti-Caspase 8 pAb (Santa Cruz, C-20) was incubated with 100 μl protein A/G agarose for 1 hr at RT. 3 million/ml H9 cells were treated with HSLs or left untreated. The samples were processed as in FADD IP. For cross-linking assay, CD4+ T cells isolated from C57BL/6 mice spleen or human THP-1 cells was stimulated with HSLs or left untreated, then cells were collected and cross-linked by 10 mM DTSSP at RT for 30 min and quenched with 1M Tris-HCl (pH7.5) for 15 min. […]

[6] = system: Fas; assay: DTSSP cross-linking assay, Fas; type: cell-based; details: crosslinker DTSSP, prolonged incubation
Protocol: as §2

[7] = system: lymphoblast H9; assay: Annexin V/PI apoptosis detection, H9; type: cell-based, human
Protocol: as §1

[8] = target: T1, TNFR1 (1-293) mutant (Homo sapiens, UniProt P19438); assay: Single molecule photo-bleaching step counting (MSFQ), TNFR1 in HELA cells; type: cell-based; details: DD-deleted TNFR1-eGFP
T1 construct: human TNFR1 (1-293) mutant was amplified from human TNFR1 with specific primers and cloned into peGFP-N1 vector; expressed in transfected cells; host or cells: HeLa cells
T1 sequence (P19438 30-293): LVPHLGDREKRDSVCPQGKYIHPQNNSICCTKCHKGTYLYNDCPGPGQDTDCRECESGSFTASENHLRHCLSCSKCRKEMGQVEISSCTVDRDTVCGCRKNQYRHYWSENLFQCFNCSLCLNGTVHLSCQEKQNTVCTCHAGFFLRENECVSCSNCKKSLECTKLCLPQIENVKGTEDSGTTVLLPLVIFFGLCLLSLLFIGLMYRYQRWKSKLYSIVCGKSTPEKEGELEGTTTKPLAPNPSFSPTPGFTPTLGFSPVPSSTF
Excerpt: Then the cells were stimulated with HSLs, TNF α, or left untreated, and washed twice with PBS and fixed with 4% paraformaldehyde before imaging. GFP was excited at 488 nm with a laser power of 5 mW measured after the laser passing through the objective. […] The EM gain of the EMCCD camera was set at 300. Movies of 400 frames were acquired for each sample at a full-frame rate of 10 Hz. For imaging analysis, the background fluorescence was firstly subtracted from the movie acquired from the fixed cells using the rolling ball method in Image J software, and regions of interest on movies were selected manually according to the outline of cells. To analyze the bleaching steps, the fluorescence time courses of each fluorescent spots were first constructed by Image J plugin and bleaching steps were then counted manually.

[9] = system: reticuloma A20; assay: Annexin V/PI apoptosis detection, A20; type: cell-based
Protocol: as §1

[10] = system: EGFR; assay: MSFQ, EGFR dimerization; type: cell-based, human; details: in comparison with the carrier treatment
Protocol: Single molecule photo-bleaching step counting: 0.5 μg TNFR1(1-293)-peGFP-N1 plasmid or 0.5 μg EGFR-peGFP-N1 plasmid was transfected into HeLa cells and cultured for 5-6 hrs. Then the cells were stimulated with HSLs, TNF α, or left untreated, and washed twice with PBS and fixed with 4% paraformaldehyde before imaging. GFP was excited at 488 nm with a laser power of 5 mW measured after the laser passing through the objective. The collected fluorescent signal was gated by a band-pass filter HQ 525/50 (Chroma Technology). The EM gain of the EMCCD camera was set at 300. Movies of 400 frames were acquired for each sample at a full-frame rate of 10 Hz. For imaging analysis, the background fluorescence was firstly subtracted from the movie acquired from the fixed cells using the rolling ball method in Image J software, and regions of interest on movies were selected manually according to the outline of cells. To analyze the bleaching steps, the fluorescence time courses of each fluorescent spots were first constructed by Image J plugin and bleaching steps were then counted manually.

[11] = system: T cell; assay: Annexin V/PI apoptosis detection, T cells; type: cell-based; details: 10 and 20 μM
Protocol: as §1

CCCCCCCCCC(=O)CC(=O)N[C@H]1CCOC1=O [3OC12 HSL, N-(3-oxo-dodecanoyl) homoserine lactone]
EGFR phosphorylation [1]: became detectable
sensitivity to 3OC12 HSL [2]: sensitive
sensitivity to 3OC12 HSL [3]: sensitive
TNFR1 associated with lipid rafts [4]: reduced
amount of band with approximate 3 times the molecular weight of TNFR1 monomer [5]: rapidly increased
Fas oligomerization [6]: did not show a significant change
sensitivity to 3OC12 HSL [7]: relatively resistant
three step bleaching frequency ([8]; untreated 7.1): 17.0+/−1.3%
one step bleaching frequency ([8]; untreated 60.0): 47.1%
sensitivity to 3OC12 HSL [9]: sensitive
EGFR dimerization [10]: increased the dimerization
T cell death [11]: significant T cell death
